Read-outs that look alike come from different tables or passages of the source.
Columns and labels:
[1] = test system: Phytophthora infestans (the causal agent of tomato late blight); assay: whole plant or invertebrate; type: in vivo; details: for pest or weed control at 0.4 ppm / pest or weed control at 2 ppm / pest or weed control at 10 ppm / pest or weed control at 40 ppm / pest or weed control at 200 ppm / pest or weed control at 1000 ppm / pest or weed control at 5000 ppm / pest or weed control at 0.08 ppm: Phytophthora infestans; for TLB Obsd (disease control rating): Table A; for TLB Obsd: component (b) alone
[2] = test system: Pseudoperonospora cubensis (the causal agent of cucumber downy mildew); assay: Test B: cucumber downy mildew, preventive spray on cucumber seedlings; type: in vivo; details: for pest or weed control at 10 µg/mL: component (b) alone 10 ppm (Compound 1 0 ppm); for pest or weed control at 40 µg/mL: component (b) alone 40 ppm (Compound 1 0 ppm)
[3] = read-out: TLB Obsd (observed effect, tomato late blight), component (b) alone, 10 ppm
[4] = read-out: TLB Obsd (observed effect, tomato late blight), component (b) alone, 40 ppm
[5] = read-out: TLB Obsd, Table D, component (b) alone at 10 ppm
[6] = read-out: TLB Obsd, Table D, component (b) alone at 40 ppm
[7] = Pseudoperonospora cubensis, Table D, component (b) alone at 10 ppm, read-out: CDM Obsd
[8] = Pseudoperonospora cubensis, Table D, component (b) alone at 40 ppm, read-out: CDM Obsd
[9] = Pseudoperonospora cubensis, read-out: CDM Obsd
[10] = Pseudoperonospora cubensis, component (b) alone, 10 ppm, read-out: CDM Obsd (observed effect, cucumber downy mildew)
[11] = Pseudoperonospora cubensis, component (b) alone, 40 ppm, read-out: CDM Obsd (observed effect, cucumber downy mildew)

Question: What does the source list for `CC(C)CC(C)c1sccc1NC(=O)c1cn(C)nc1C(F)(F)F` (stereo not shown) [penthiopyrad]?
Answer: pest or weed control at 0.4 ppm ([1]; read-out: TLB Obsd (disease control rating), Table A, component (b) alone 0.4 ppm): 0%; pest or weed control at 2 ppm ([1]; read-out: TLB Obsd (disease control rating), Table A, component (b) alone 2 ppm): 0%; pest or weed control at 10 ppm ([1]; read-out: TLB Obsd (disease control rating), Table A, component (b) alone 10 ppm): 9%; pest or weed control at 40 ppm ([1]; read-out: TLB Obsd (disease control rating), Table A, component (b) alone 40 ppm): 17%; pest or weed control at 200 ppm ([1]; read-out: TLB Obsd (disease control rating), Table A, component (b) alone 200 ppm): 17%; pest or weed control at 0.4 ppm ([1]; read-out: TLB Obsd, component (b) alone, 0.4 ppm): 0%; pest or weed control at 2 ppm ([1]; read-out: TLB Obsd, component (b) alone, 2 ppm): 22%; pest or weed control at 10 ppm ([1]; read-out: TLB Obsd, component (b) alone, 10 ppm): 7%; pest or weed control at 40 ppm ([1]; read-out: TLB Obsd, component (b) alone, 40 ppm): 15%; pest or weed control at 200 ppm ([1]; read-out: TLB Obsd, component (b) alone, 200 ppm): 7%; pest or weed control at 0.4 ppm ([2]; Pseudoperonospora cubensis, Table A, component (b) alone 0.4 ppm, read-out: CDM Obsd (disease control rating)): 47%; pest or weed control at 2 ppm ([2]; Pseudoperonospora cubensis, Table A, component (b) alone 2 ppm, read-out: CDM Obsd (disease control rating)): 47%; pest or weed control at 10 ppm ([2]; Pseudoperonospora cubensis, Table A, component (b) alone 10 ppm, read-out: CDM Obsd (disease control rating)): 47%; pest or weed control at 40 ppm ([2]; Pseudoperonospora cubensis, Table A, component (b) alone 40 ppm, read-out: CDM Obsd (disease control rating)): 47%; pest or weed control at 200 ppm ([2]; Pseudoperonospora cubensis, Table A, component (b) alone 200 ppm, read-out: CDM Obsd (disease control rating)): 47%; pest or weed control at 0.4 ppm ([2]; Pseudoperonospora cubensis, Table G, component (b) alone at 0.4 ppm, read-out: CDM Obsd): 43%; pest or weed control at 2 ppm ([2]; Pseudoperonospora cubensis, Table G, component (b) alone at 2 ppm, read-out: CDM Obsd): 33%; pest or weed control at 10 ppm ([2]; Pseudoperonospora cubensis, Table G, component (b) alone at 10 ppm, read-out: CDM Obsd): 26%; pest or weed control at 40 ppm ([2]; Pseudoperonospora cubensis, Table G, component (b) alone at 40 ppm, read-out: CDM Obsd): 26%; pest or weed control at 200 ppm ([2]; Pseudoperonospora cubensis, Table G, component (b) alone at 200 ppm, read-out: CDM Obsd): 47%; pest or weed control at 0.4 ppm ([2]; Pseudoperonospora cubensis, component (b) alone, 0.4 ppm, read-out: CDM Obsd): 0%; pest or weed control at 2 ppm ([2]; Pseudoperonospora cubensis, component (b) alone, 2 ppm, read-out: CDM Obsd): 0%; pest or weed control at 10 ppm ([2]; Pseudoperonospora cubensis, component (b) alone, 10 ppm, read-out: CDM Obsd): 0%; pest or weed control at 40 ppm ([2]; Pseudoperonospora cubensis, component (b) alone, 40 ppm, read-out: CDM Obsd): 0%; pest or weed control at 200 ppm ([2]; Pseudoperonospora cubensis, component (b) alone, 200 ppm, read-out: CDM Obsd): 16%

Question: What does the source list for `CCCOC(=O)NCCCN(C)C` [propamocarb]?
Answer: pest or weed control at 10 ppm [1, 3]: 0%; pest or weed control at 40 ppm [1, 4]: 0%; pest or weed control at 200 ppm ([1]; read-out: TLB Obsd (observed effect, tomato late blight), component (b) alone, 200 ppm): 0%; pest or weed control at 1000 ppm ([1]; read-out: TLB Obsd (observed effect, tomato late blight), component (b) alone, 1000 ppm): 38%; pest or weed control at 5000 ppm ([1]; read-out: TLB Obsd (observed effect, tomato late blight), component (b) alone, 5000 ppm): 92%; pest or weed control at 10 ppm [1, 5]: 6%; pest or weed control at 40 ppm [1, 6]: 6%; pest or weed control at 200 ppm ([1]; read-out: TLB Obsd, Table D, component (b) alone at 200 ppm): 19%; pest or weed control at 1000 ppm ([1]; read-out: TLB Obsd, Table D, component (b) alone at 1000 ppm): 57%; pest or weed control at 5000 ppm ([1]; read-out: TLB Obsd, Table D, component (b) alone at 5000 ppm): 77%; pest or weed control at 10 ppm [2, 7]: 47%; pest or weed control at 40 ppm [2, 8]: 47%; pest or weed control at 200 ppm ([2]; Pseudoperonospora cubensis, Table D, component (b) alone at 200 ppm, read-out: CDM Obsd): 58%; pest or weed control at 1000 ppm ([2]; Pseudoperonospora cubensis, Table D, component (b) alone at 1000 ppm, read-out: CDM Obsd): 76%; pest or weed control at 5000 ppm ([2]; Pseudoperonospora cubensis, Table D, component (b) alone at 5000 ppm, read-out: CDM Obsd): 98%; pest or weed control at 10 µg/mL [2, 9]: 47%; pest or weed control at 40 µg/mL [2, 9]: 47%; pest or weed control at 200 µg/mL ([2]; Pseudoperonospora cubensis, component (b) alone 200 ppm (Compound 1 0 ppm), read-out: CDM Obsd): 94%; pest or weed control at 1000 µg/mL ([2]; Pseudoperonospora cubensis, component (b) alone 1000 ppm (Compound 1 0 ppm), read-out: CDM Obsd): 100%; pest or weed control at 5000 µg/mL ([2]; Pseudoperonospora cubensis, component (b) alone 5000 ppm (Compound 1 0 ppm), read-out: CDM Obsd): 100%; pest or weed control at 10 ppm [2, 10]: 46%; pest or weed control at 40 ppm [2, 11]: 31%; pest or weed control at 200 ppm ([2]; Pseudoperonospora cubensis, component (b) alone, 200 ppm, read-out: CDM Obsd (observed effect, cucumber downy mildew)): 86%; pest or weed control at 1000 ppm ([2]; Pseudoperonospora cubensis, component (b) alone, 1000 ppm, read-out: CDM Obsd (observed effect, cucumber downy mildew)): 99%; pest or weed control at 5000 ppm ([2]; Pseudoperonospora cubensis, component (b) alone, 5000 ppm, read-out: CDM Obsd (observed effect, cucumber downy mildew)): 100%

Question: What does the source list for `CCCOc1nc2ccc(I)cc2c(=O)n1CCC` [proquinazid]?
Answer: TLB Obsd (disease control rating) ([1]; component (b) alone 0.4 ppm): 0%; TLB Obsd (disease control rating) ([1]; component (b) alone 2 ppm): 0%; TLB Obsd (disease control rating) ([1]; component (b) alone 10 ppm): 0%; TLB Obsd (disease control rating) ([1]; component (b) alone 40 ppm): 24%; TLB Obsd (disease control rating) ([1]; component (b) alone 200 ppm): 0%; TLB Obsd ([1]; 0.04 ppm): 17%; TLB Obsd ([1]; 2 ppm): 0%; TLB Obsd ([1]; 10 ppm): 8%; TLB Obsd ([1]; 40 ppm): 8%; TLB Obsd ([1]; 200 ppm): 17%; CDM Obsd (disease control rating) ([2]; Table A, component (b) alone 0.4 ppm): 47%; CDM Obsd (disease control rating) ([2]; Table A, component (b) alone 2 ppm): 47%; CDM Obsd (disease control rating) ([2]; Table A, component (b) alone 10 ppm): 47%; CDM Obsd (disease control rating) ([2]; Table A, component (b) alone 40 ppm): 47%; CDM Obsd (disease control rating) ([2]; Table A, component (b) alone 200 ppm): 47%; CDM Obsd ([2]; Table G, component (b) alone at 0.4 ppm): 26%; CDM Obsd ([2]; Table G, component (b) alone at 2 ppm): 26%; CDM Obsd ([2]; Table G, component (b) alone at 10 ppm): 26%; CDM Obsd ([2]; Table G, component (b) alone at 40 ppm): 26%; CDM Obsd ([2]; Table G, component (b) alone at 200 ppm): 26%; CDM Obsd ([2]; component (b) alone, 0.04 ppm): 0%; CDM Obsd ([2]; component (b) alone, 2 ppm): 0%; CDM Obsd ([2]; component (b) alone, 10 ppm): 0%; CDM Obsd ([2]; component (b) alone, 40 ppm): 0%; CDM Obsd ([2]; component (b) alone, 200 ppm): 0%

Question: How did the pest or weed control at 0.08 ppm ([1]; read-out: TLB Obsd (observed effect, tomato late blight), component (b) alone, 0.08 ppm) turn out when `COC(=O)N(OC)c1ccccc1COc1ccn(-c2ccc(Cl)cc2)n1` [pyraclostrobin] was run?
Answer: 15%

Question: What about the pest or weed control at 0.4 ppm ([1]; read-out: TLB Obsd (observed effect, tomato late blight), component (b) alone, 0.4 ppm) of the same molecule?
Answer: 35%

Question: What about the pest or weed control at 2 ppm ([1]; read-out: TLB Obsd (observed effect, tomato late blight), component (b) alone, 2 ppm) of the same molecule?
Answer: 63%

Question: What about the pest or weed control at 10 ppm [1, 3] of the same molecule?
Answer: 90%

Question: What about the pest or weed control at 40 ppm [1, 4] of the same molecule?
Answer: 94%

Question: And the pest or weed control at 0.08 ppm ([1]; read-out: TLB Obsd, Table D, component (b) alone at 0.08 ppm)?
Answer: 26%

Question: And the pest or weed control at 0.4 ppm ([1]; read-out: TLB Obsd, Table D, component (b) alone at 0.4 ppm)?
Answer: 40%

Question: And the pest or weed control at 2 ppm ([1]; read-out: TLB Obsd, Table D, component (b) alone at 2 ppm)?
Answer: 78%

Question: And the pest or weed control at 10 ppm [1, 5]?
Answer: 85%

Question: What about the pest or weed control at 40 ppm [1, 6] of the same molecule?
Answer: 95%

Question: What about the pest or weed control at 0.08 ppm ([2]; Pseudoperonospora cubensis, Table D, component (b) alone at 0.08 ppm, read-out: CDM Obsd) of the same molecule?
Answer: 47%

Question: And the pest or weed control at 0.4 ppm ([2]; Pseudoperonospora cubensis, Table D, component (b) alone at 0.4 ppm, read-out: CDM Obsd)?
Answer: 47%

Question: And the pest or weed control at 2 ppm ([2]; Pseudoperonospora cubensis, Table D, component (b) alone at 2 ppm, read-out: CDM Obsd)?
Answer: 98%

Question: And the pest or weed control at 10 ppm [2, 7]?
Answer: 100%

Question: And the pest or weed control at 40 ppm [2, 8]?
Answer: 100%

Question: And the pest or weed control at 0.08 µg/mL ([2]; Pseudoperonospora cubensis, component (b) alone 0.08 ppm (Compound 1 0 ppm), read-out: CDM Obsd)?
Answer: 47%

Question: And the pest or weed control at 0.4 µg/mL ([2]; Pseudoperonospora cubensis, component (b) alone 0.4 ppm (Compound 1 0 ppm), read-out: CDM Obsd)?
Answer: 47%

Question: What about the pest or weed control at 2 µg/mL ([2]; Pseudoperonospora cubensis, component (b) alone 2 ppm (Compound 1 0 ppm), read-out: CDM Obsd) of the same molecule?
Answer: 57%

Question: And the pest or weed control at 10 µg/mL [2, 9]?
Answer: 100%

Question: And the pest or weed control at 40 µg/mL [2, 9]?
Answer: 100%

Question: And the pest or weed control at 0.08 ppm ([2]; Pseudoperonospora cubensis, component (b) alone, 0.08 ppm, read-out: CDM Obsd (observed effect, cucumber downy mildew))?
Answer: 0%

Question: What about the pest or weed control at 0.4 ppm ([2]; Pseudoperonospora cubensis, component (b) alone, 0.4 ppm, read-out: CDM Obsd (observed effect, cucumber downy mildew)) of the same molecule?
Answer: 0%

Question: What about the pest or weed control at 2 ppm ([2]; Pseudoperonospora cubensis, component (b) alone, 2 ppm, read-out: CDM Obsd (observed effect, cucumber downy mildew)) of the same molecule?
Answer: 68%

Question: And the pest or weed control at 10 ppm [2, 10]?
Answer: 100%

Question: And the pest or weed control at 40 ppm [2, 11]?
Answer: 100%
